The values below come from patent publication US20070161123A1, “DETERMINATION OF CONCENTRATION OF FK778 BY COMPETITIVE IMMUNOASSAY” (priority 2006, published 2007).

For data set [1] the following is noted: humans; cited from earlier work.
The test system of the next data set is antibody to FK778. Description: Interference of prescription drugs in the […] FK778 competitive chemiluminescent immunoassay. Type of data set: binding. The method, then: FK778 assays were performed by an […]® instrument, commercially available from Abbott Laboratories, Abbott Park, Ill., according to the following procedure. See also U.S. Pat. Nos. 5,795,784 and 5,856,194, both of which are incorporated herein by reference. A serum sample (10 μL) was diluted with Line Diluent at a ratio of 1 part sample to 20 parts Line Diluent. A portion of the diluted sample (10 μL) was mixed with 90 μL of Conjugate Reagent and 50 μL of Line Diluent. Magnetic Microparticle Reagent (50 μL) and Bihapten Tracer Reagent (50 μL) were added to the foregoing mixture after a period of six (6) seconds. The resulting mixture (250 μL) was incubated for 25 minutes. The microparticles were washed three (3) times with 1 mL of Line Diluent. The magnetic particles were attracted to a magnet at the same time that they were being washed. The washed microparticles were treated with Pretrigger Reagent (100 μL acidic hydrogen peroxide). Finally, the chemiluminescent reaction was triggered by addition of Trigger Reagent (alkaline detergent solution (300 μL)). Measurement of light generated was carried out by means of a photomultiplier tube.
This example illustrates interference with prescription drugs. Interference was tested for 44 of 45 prescription drugs at levels recommended in NCCLS document EP-7P. Interference was tested in the presence of FK778 and absence of FK778 in the sample. Interference was defined as greater than 5 μg/mL (without FK778) or greater than 10% (with FK778). […] Both interferences were expected; fluorescein because of its competition with the FK778-fluorescein bihapten tracer and A77,1726 because of its similarity in structure to FK778.
Fluorescein is used in in vivo diagnostic procedures to measure blood flow in the eye and is not expected to be present in patients undergoing a transplant. 10 Nevertheless, fluorescein was tested more thoroughly to estimate the magnitude of the interference at concentrations lower than 400 μg/mL.
Additional testing was also carried out with A77, 1726 to assess the cross-reactivity of this molecule in the presence and absence of FK778.

`C/C(O)=C(\C#N)C(=O)Nc1ccc(C(F)(F)F)cc1` [A77 1726]: in data set [1], the plasma half-life is 15 to 18 days. Besides, the “% Cross-reactivity A77,1726” value is listed as 13% in the data set on antibody to FK778 (A77,1726 50 μg/mL, High FK778); 43% with antibody to FK778 (A77,1726 50 μg/mL, Low FK778); 24% in the data set with antibody to FK778 (A77,1726 50 μg/mL, Med FK778); 23% in the data set with antibody to FK778 (A77,1726 100 μg/mL, High FK778); 42% in the data set with antibody to FK778 (A77,1726 100 μg/mL, Low FK778); 31% with antibody to FK778 (A77,1726 100 μg/mL, Med FK778). Moreover, the “% Cross-reactivity A77,1726” value was 34% in the data set on antibody to FK778 (A77,1726 200 μg/mL, High FK778); 42% in the data set with antibody to FK778 (A77,1726 200 μg/mL, Low FK778); 37% in the data set with antibody to FK778 (A77,1726 200 μg/mL, Med FK778); 47% in the data set on antibody to FK778 (A77,1726 200 μg/mL, Zero FK778). For the same molecule, the “A77,1726 measured as FK778” value amounted to 152.9 µg/mL in the data set with antibody to FK778 (A77,1726 50 μg/mL, High FK778); 42.3 µg/mL with antibody to FK778 (A77,1726 50 μg/mL, Low FK778); 85 µg/mL in the data set on antibody to FK778 (A77,1726 50 μg/mL, Med FK778); 170.1 µg/mL in the data set on antibody to FK778 (A77,1726 100 μg/mL, High FK778); 62.6 µg/mL in the data set with antibody to FK778 (A77,1726 100 μg/mL, Low FK778); 103.4 µg/mL in the data set with antibody to FK778 (A77,1726 100 μg/mL, Med FK778). Further, the “A77,1726 measured as FK778” value turned out to be 209.3 µg/mL in the data set on antibody to FK778 (A77,1726 200 μg/mL, High FK778); 104.8 µg/mL in the data set with antibody to FK778 (A77,1726 200 μg/mL, Low FK778); 145.5 µg/mL in the data set on antibody to FK778 (A77,1726 200 μg/mL, Med FK778); 94.9 µg/mL in the data set with antibody to FK778 (A77,1726 200 μg/mL, Zero FK778). In addition, in the data set with antibody to FK778 (defined as greater than 5 μg/mL (without FK778) or greater than 10% (with FK778)), the Interference entry is “Interference was observed”.

In the case of `C#CCC/C(O)=C(\C#N)C(=O)Nc1ccc(C(F)(F)F)cc1` [FK778], in data set [1], the “plasma half-life compared with A77 1726” value was “shorter”.
